ChEMBL document CHEMBL6182909 (J Med Chem, 2025)
≈ marks a conversion by molar mass, not a printed value. Calls of active or inactive are those of the source. The calls are words filed in the database; no cut-off is given here.

Assays:
[1] = Volume of distribution at steady state in rat at 2 mg/kg, iv; type: ADME, organism-based; settings: in vivo, read-out: Vdss
[2] = Cmax in dog at 5 mg/kg, po; type: ADME, organism-based, Canis lupus familiaris; settings: in vivo
[3] = Oral bioavailability in mouse at 5 mg/kg; type: ADME, organism-based; settings: in vivo
[4] = Volume of distribution at steady state in mouse at 2 mg/kg, iv; type: ADME, organism-based; settings: in vivo, read-out: Vdss
[5] = Renal clearance in Cynomolgus monkey at 2 mg/kg, iv; type: ADME, organism-based, Macaca fascicularis; settings: in vivo
[6] = AUC (0 to infinity) in dog at 5 mg/kg, po; type: ADME, organism-based, Canis lupus familiaris; settings: in vivo
[7] = Renal clearance in rat at 2 mg/kg, iv; type: ADME, organism-based; settings: in vivo
[8] = Stability in microsomes (unknown origin); type: ADME, Microsome
[9] = AUC (0 to infinity) in Cynomolgus monkey at 2 mg/kg, iv; type: ADME, organism-based, Macaca fascicularis; settings: in vivo
[10] = AUC (0 to infinity) in rat at 5 mg/kg, po; type: ADME, organism-based; settings: in vivo
[11] = Clearance in Cynomolgus monkey at 2 mg/kg, iv; type: ADME, organism-based, Macaca fascicularis; settings: in vivo
[12] = Half life in rat at 5 mg/kg, po; type: ADME, organism-based; settings: in vivo
[13] = AUC (0 to infinity) in rat at 2 mg/kg, iv; type: ADME, organism-based; settings: in vivo
[14] = Clearance in dog at 2 mg/kg, iv; type: ADME, organism-based, Canis lupus familiaris; settings: in vivo
[15] = Half life in dog at 5 mg/kg, po; type: ADME, organism-based, Canis lupus familiaris; settings: in vivo
[16] = AUC (0 to infinity) in mouse at 5 mg/kg, po; type: ADME, organism-based; settings: in vivo
[17] = Half life in rat at 2 mg/kg, iv; type: ADME, organism-based; settings: in vivo
Rattus norvegicus [18] = assay: Hypophagic effect in fasted male Sprague-Dawley rat at 10 mg/kg, po measured after 1 hr in presence of SB242084; type: functional, organism-based
[19] = Tmax in dog at 5 mg/kg, po; type: ADME, organism-based, Canis lupus familiaris; settings: in vivo
[20] = Half life in Cynomolgus monkey at 5 mg/kg, po; type: ADME, organism-based, Macaca fascicularis; settings: in vivo
[21] = Tmax in rat at 5 mg/kg, po; type: ADME, organism-based; settings: in vivo
[22] = Oral bioavailability in dog at 5 mg/kg; type: ADME, organism-based, Canis lupus familiaris; settings: in vivo
[23] = Cmax in rat at 5 mg/kg, po; type: ADME, organism-based; settings: in vivo
[24] = AUC (0 to infinity) in mouse at 2 mg/kg, iv; type: ADME, organism-based; settings: in vivo
[25] = Volume of distribution at steady state in Cynomolgus monkey at 2 mg/kg, iv; type: ADME, organism-based, Macaca fascicularis; settings: in vivo, read-out: Vdss
[26] = Cmax in Cynomolgus monkey at 5 mg/kg, po; type: ADME, organism-based, Macaca fascicularis; settings: in vivo
Rattus norvegicus [27] = assay: Hypophagic effect in fasted male Sprague-Dawley rat assessed as inhibition of food intake at 10 mg/kg, po measured after 1 hr relative to control; type: functional; settings: Rattus norvegicus, Sprague-Dawley, po
[28] = Volume of distribution at steady state in dog at 2 mg/kg, iv; type: ADME, organism-based, Canis lupus familiaris; settings: in vivo, read-out: Vdss
[29] = AUC (0 to infinity) in Cynomolgus monkey at 5 mg/kg, po; type: ADME, organism-based, Macaca fascicularis; settings: in vivo
[30] = Half life in Cynomolgus monkey at 2 mg/kg, iv; type: ADME, organism-based, Macaca fascicularis; settings: in vivo
[31] = Clearance in mouse at 2 mg/kg, iv; type: ADME, organism-based; settings: in vivo
[32] = Stability in hepatocytes (unknown origin); type: ADME, cell-based, Hepatocyte
[33] = Basicity constant, pKa of compound; type: physicochemical
[34] = Oral bioavailability in Cynomolgus monkey at 5 mg/kg; type: ADME, organism-based, Macaca fascicularis; settings: in vivo
Rattus norvegicus [35] = assay: Hypophagic effect in fasted male Sprague-Dawley rat assessed as effective dose administered orally measured after 1 hr relative to control; type: functional; settings: route po
[36] = Half life in mouse at 2 mg/kg, iv; type: ADME, organism-based; settings: in vivo
[37] = Unbound fraction in brain of fasted male Sprague-Dawley rat at 10 mg/kg, po; type: ADME, organism-based; settings: in vivo
[38] = AUC (0 to infinity) in dog at 2 mg/kg, iv; type: ADME, organism-based, Canis lupus familiaris; settings: in vivo
[39] = Half life in mouse at 5 mg/kg, po; type: ADME, organism-based; settings: in vivo
[40] = Water solubility of compound; type: physicochemical; settings: buffer
[41] = Tmax in mouse at 5 mg/kg, po; type: ADME, organism-based; settings: in vivo
[42] = Tmax in Cynomolgus monkey at 5 mg/kg, po; type: ADME, organism-based, Macaca fascicularis; settings: in vivo
[43] = Renal clearance in dog at 2 mg/kg, iv; type: ADME, organism-based, Canis lupus familiaris; settings: in vivo
[44] = Clearance in rat at 2 mg/kg, iv; type: ADME, organism-based; settings: in vivo
[45] = Half life in dog at 2 mg/kg, iv; type: ADME, organism-based, Canis lupus familiaris; settings: in vivo
[46] = Cmax in mouse at 5 mg/kg, po; type: ADME, organism-based; settings: in vivo
[47] = Unbound fraction in plasma of fasted male Sprague-Dawley rat at 10 mg/kg, po; type: ADME, organism-based
Rattus norvegicus [48] = organism: Rattus norvegicus; assay: animal or person; settings: Sprague-Dawley, 1 h, read-out: INH
Rattus norvegicus [49] = organism: Rattus norvegicus; assay: animal or person; settings: Sprague-Dawley, po, 1 h, read-out: INH
[50] = Oral bioavailability in rat at 5 mg/kg; type: ADME, organism-based; settings: in vivo
[51] = Drug concentration in plasma of fasted male Sprague-Dawley rat assessed as inhibition of food intake at 10 mg/kg, po measured after 1 hr relative to control; type: organism-based
Rattus norvegicus [52] = assay: Hypophagic effect in fasted male Sprague-Dawley rat assessed as inhibition of food intake at 5 mg/kg, po measured after 1 hr relative to control; type: functional
[53] = Drug concentration in brain of fasted male Sprague-Dawley rat assessed as inhibition of food intake at 10 mg/kg, po measured after 1 hr relative to control; type: organism-based; settings: read-out: Ct

CNC(=O)c1ccc2c3c1CCN3CCNC2
Vd [1]: 1.89 L/kg
Cmax [2]: 1820 ng/mL
bioavailability [3]: 85.6%
Vd [4]: 2.44 L/kg
CL ([5]; iv, 2 mg/kg): 4.5 mL/min/kg
AUC(0-inf) [6]: 4130 ng·h/mL
CL renal [7]: 24 mL/min/kg
Stability [8]: Stable
AUC(0-inf) [9]: 2000 ng·h/mL
AUC(0-inf) [10]: 2020 ng·h/mL
clearance [11]: 16.7 mL/min/kg
half-life [12]: 1.51 h
AUC(0-inf) [13]: 770 ng·h/mL
clearance [14]: 18.3 mL/min/kg
half-life [15]: 1.9 h
AUC(0-inf) [16]: 720 ng·h/mL
half-life [17]: 0.56 h
Activity (Rattus norvegicus [18]): inactive
Tmax [19]: 0.92 h
half-life [20]: 2.07 h
Tmax [21]: 0.58 h
bioavailability [22]: 90.2%
Cmax [23]: 570 ng/mL
AUC(0-inf) [24]: 340 ng·h/mL
Vd [25]: 1.8 L/kg
Cmax [26]: 700 ng/mL
inhibition in vivo at 10 mg/kg (Rattus norvegicus [27]): 87%
Vd [28]: 1.41 L/kg
AUC(0-inf) [29]: 3580 ng·h/mL
half-life [30]: 1.49 h
clearance [31]: 99 mL/min/kg
Stability [32]: Stable
pKa [33]: 7.93
bioavailability [34]: 71.2%
ED50 (Rattus norvegicus [35]): 6.4 mg/kg
half-life [36]: 0.41 h
Fu [37]: 75%
AUC(0-inf) [38]: 1830 ng·h/mL
half-life [39]: 0.6 h
solubility [40]: 91 mg/mL (≈ 393 mM)
Tmax [41]: 0.25 h
Tmax [42]: 2.33 h
CL renal [43]: 1.17 mL/min/kg
clearance [44]: 44.3 mL/min/kg
half-life [45]: 1.38 h
Cmax [46]: 940 ng/mL
fraction unbound [47]: 0.87

COCCNC(=O)c1ccc2c3c1CCN3CCNC2
inhibition in vivo at 10 mg/kg (Rattus norvegicus [27]): 9%
inhibition in vivo at 10 mg/kg (Rattus norvegicus [48]): 7%
inhibition in vivo at 20 mg/kg (Rattus norvegicus [49]): 25%

C[C@H]1CN2CCNCc3ccc(C(=O)NCC(F)F)c1c32 [BEXICASERIN]
Vd [1]: 3.69 L/kg
Cmax [2]: 1590 ng/mL
bioavailability [3]: 100%
Vd [4]: 2.98 L/kg
CL renal [5]: 0.0333 mL/min/kg
AUC(0-inf) [6]: 3920 ng·h/mL
CL renal [7]: 9.65 mL/min/kg
AUC(0-inf) [9]: 2970 ng·h/mL
AUC(0-inf) [10]: 1280 ng·h/mL
clearance [11]: 11.5 mL/min/kg
half-life [12]: 2.5 h
AUC(0-inf) [13]: 577 ng·h/mL
clearance [14]: 20.7 mL/min/kg
half-life [15]: 4 h
bioavailability [50]: 89%
concentration at 1 h [51]: 960 ng/mL
AUC(0-inf) [16]: 910 ng·h/mL
half-life [17]: 1.6 h
Tmax [19]: 0.58 h
half-life [20]: 5.52 h
Tmax [21]: 0.5 h
bioavailability [22]: 97%
Cmax [23]: 450 ng/mL
AUC(0-inf) [24]: 318 ng·h/mL
Vd [25]: 4.36 L/kg
Cmax [26]: 430 ng/mL
Vd [28]: 1.85 L/kg
AUC(0-inf) [29]: 4300 ng·h/mL
half-life [30]: 6.8 h
clearance [31]: 68.8 mL/min/kg
bioavailability [34]: 58%
ED50 (Rattus norvegicus [35]): 2.8 mg/kg
half-life [36]: 0.66 h
AUC(0-inf) [38]: 1620 ng·h/mL
half-life [39]: 1.5 h
Tmax [41]: 0.25 h
inhibition in vivo at 5 mg/kg (Rattus norvegicus [52]): 81%
Tmax [42]: 3 h
CL renal [43]: 0.00333 mL/min/kg
clearance [44]: 58.5 mL/min/kg
concentration at 1 h [53]: 832 ng/g
half-life [45]: 1.3 h
Cmax [46]: 820 ng/mL
